# Results reported in ChEMBL document CHEMBL1201862, “PubChem BioAssay data set” (2004).
#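 Protocol summary: plate cells (96-well), add compound at 5 concentrations, incubate 48 h, interpolate endpoints linearly. Here, GI50 denotes the concentration required for 50% inhibition of growth.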 Active and inactive are the calls of the source. Cut-off read from the data, not from the text of the source: active = GI50 up to about 1.1 µM and inactive = higher.
# Assays:
# Assay in all cases: inhibition of tumour cell growth, NCI panel, 48 h
# 786-0 = test system: 786-0
# A498 = test system: A498
# A549 = test system: A549
# ACHN = test system: ACHN
# BT-549 = test system: BT-549
# CAKI-1 = test system: CAKI-1
# CCRF-CEM = test system: CCRF-CEM
# COLO 205 = test system: COLO 205
# DU-145 = test system: DU-145
# EKVX = test system: EKVX
# HCC 2998 = test system: HCC 2998
# HCT-116 = test system: HCT-116
# HCT-15 = test system: HCT-15
# HL-60 = test system: HL-60
# HOP-62 = test system: HOP-62
# HOP-92 = test system: HOP-92
# HT-29 = test system: HT-29
# Hs-578T = test system: Hs-578T
# IGROV-1 = test system: IGROV-1
# K562 = test system: K562
# KM12 = test system: KM12
# LOX IMVI = test system: LOX IMVI
# M14 = test system: M14
# MCF7 = test system: MCF7
# MDA-MB-231 = test system: MDA-MB-231
# MDA-MB-435 = test system: MDA-MB-435
# MDA-N = test system: MDA-N
# MOLT-4 = test system: MOLT-4
# Malme-3M = test system: Malme-3M
# NCI-H226 = test system: NCI-H226
# NCI-H23 = test system: NCI-H23
# NCI-H460 = test system: NCI-H460
# NCI-H522 = test system: NCI-H522
# NCI/ADR-RES = test system: NCI/ADR-RES
# OVCAR-3 = test system: OVCAR-3
# OVCAR-4 = test system: OVCAR-4
# OVCAR-5 = test system: OVCAR-5
# OVCAR-8 = test system: OVCAR-8
# PC-3 = test system: PC-3
# RPMI-8226 = test system: RPMI-8226
# SF-268 = test system: SF-268
# SF-295 = test system: SF-295
# SF-539 = test system: SF-539
# SK-MEL-28 = test system: SK-MEL-28
# SK-MEL-2 = test system: SK-MEL-2
# SK-MEL-5 = test system: SK-MEL-5
# SK-OV-3 = test system: SK-OV-3
# SN12C = test system: SN12C
# SNB-19 = test system: SNB-19
# SNB-75 = test system: SNB-75
# SR = test system: SR
# SW-620 = test system: SW-620
# T47D = test system: T47D
# TK-10 = test system: TK-10
# U-251 = test system: U-251
# UACC-257 = test system: UACC-257
# UACC-62 = test system: UACC-62
# UO-31 = test system: UO-31
# RXF 393 = test system: RXF 393
smiles,measurement,setting,value
COc1cccc(CCn2c(N)c(-c3cc(Cl)cc(Cl)c3)c3ccc([N+](=O)[O-])cc3c2=O)c1,GI50,786-0,4.91 µM (inactive)
same,GI50,A498,3.56 µM (inactive)
same,GI50,A549,4.76 µM (inactive)
same,GI50,ACHN,3.26 µM (inactive)
same,GI50,BT-549,3.53 µM (inactive)
same,GI50,CAKI-1,3.5 µM (inactive)
same,GI50,CCRF-CEM,0.787 µM (active)
same,GI50,COLO 205,2.03 µM (inactive)
same,GI50,DU-145,2.7 µM (inactive)
same,GI50,EKVX,4.69 µM (inactive)
same,GI50,HCC 2998,3.51 µM (inactive)
same,GI50,HCT-116,2.84 µM (inactive)
same,GI50,HCT-15,3.19 µM
same,GI50,HL-60,0.811 µM (active)
same,GI50,HOP-62,5.21 µM (inactive)
same,GI50,HOP-92,2.85 µM (inactive)
same,GI50,HT-29,5.52 µM (inactive)
same,GI50,Hs-578T,3.19 µM (inactive)
same,GI50,IGROV-1,3.33 µM (inactive)
same,GI50,K562,1.75 µM (inactive)
same,GI50,KM12,3.47 µM (inactive)
same,GI50,LOX IMVI,3.61 µM (inactive)
same,GI50,M14,3.95 µM (inactive)
same,GI50,MCF7,4.62 µM (inactive)
same,GI50,MDA-MB-231,4.68 µM (inactive)
same,GI50,MDA-MB-435,3.57 µM (inactive)
same,GI50,MDA-N,4.53 µM (inactive)
same,GI50,MOLT-4,1.88 µM (inactive)
same,GI50,Malme-3M,2.83 µM (inactive)
same,GI50,NCI-H226,3.67 µM (inactive)
same,GI50,NCI-H23,2.35 µM (inactive)
same,GI50,NCI-H460,3.04 µM (inactive)
same,GI50,NCI-H522,2.92 µM (inactive)
same,GI50,NCI/ADR-RES,3.27 µM (inactive)
same,GI50,OVCAR-3,3.13 µM (inactive)
same,GI50,OVCAR-4,7.55 µM (inactive)
same,GI50,OVCAR-5,18.1 µM (inactive)
same,GI50,OVCAR-8,3.81 µM (inactive)
same,GI50,PC-3,3.1 µM (inactive)
same,GI50,RPMI-8226,0.65 µM (active)
same,GI50,SF-268,5.86 µM (inactive)
same,GI50,SF-295,3.73 µM (inactive)
same,GI50,SF-539,77.3 µM (inactive)
same,GI50,SK-MEL-28,4.84 µM (inactive)
same,GI50,SK-MEL-2,3.9 µM (inactive)
same,GI50,SK-MEL-5,2.07 µM (inactive)
same,GI50,SK-OV-3,8.89 µM (inactive)
same,GI50,SN12C,5 µM (inactive)
same,GI50,SNB-19,3.21 µM (inactive)
same,GI50,SNB-75,4.39 µM (inactive)
same,GI50,SR,0.897 µM (active)
same,GI50,SW-620,4.04 µM (inactive)
same,GI50,T47D,2.78 µM (inactive)
same,GI50,TK-10,4.28 µM (inactive)
same,GI50,U-251,3.63 µM (inactive)
same,GI50,UACC-257,3.33 µM (inactive)
same,GI50,UACC-62,3.33 µM (inactive)
same,GI50,UO-31,2.68 µM (inactive)
COc1cc2c(c(OC)c1OC)-c1ccc(SC)cc1[C@H](OC(=O)c1ccccc1)CC2,GI50,786-0,0.106 µM (active)
same,GI50,A498,0.437 µM (active)
same,GI50,A549,0.123 µM (active)
same,GI50,ACHN,0.189 µM (active)
same,GI50,BT-549,0.309 µM (active)
same,GI50,CAKI-1,0.407 µM (active)
same,GI50,CCRF-CEM,0.0488 µM (active)
same,GI50,COLO 205,0.188 µM (active)
same,GI50,DU-145,0.203 µM (active)
same,GI50,EKVX,0.155 µM (active)
same,GI50,HCC 2998,0.32 µM (active)
same,GI50,HCT-116,0.0817 µM (active)
same,GI50,HCT-15,0.0667 µM
same,GI50,HL-60,0.146 µM (active)
same,GI50,HOP-92,0.286 µM (active)
same,GI50,HT-29,0.122 µM (active)
same,GI50,Hs-578T,0.132 µM (active)
same,GI50,IGROV-1,0.145 µM (active)
same,GI50,K562,0.0849 µM (active)
same,GI50,KM12,0.0488 µM (active)
same,GI50,LOX IMVI,0.0743 µM (active)
same,GI50,M14,0.0519 µM (active)
same,GI50,MCF7,0.0311 µM (active)
same,GI50,MDA-MB-231,0.284 µM (active)
same,GI50,MDA-MB-435,0.0168 µM (active)
same,GI50,MDA-N,0.0136 µM (active)
same,GI50,MOLT-4,0.151 µM (active)
same,GI50,NCI-H226,0.237 µM (active)
same,GI50,NCI-H23,0.0935 µM (active)
same,GI50,NCI-H460,0.149 µM (active)
same,GI50,NCI-H522,0.0324 µM (active)
same,GI50,NCI/ADR-RES,0.0946 µM (active)
same,GI50,OVCAR-3,0.199 µM (active)
same,GI50,OVCAR-5,0.622 µM (active)
same,GI50,OVCAR-8,0.158 µM (active)
same,GI50,PC-3,0.0673 µM (active)
same,GI50,RPMI-8226,0.0424 µM (active)
same,GI50,RXF 393,0.0334 µM (active)
same,GI50,SF-268,0.214 µM (active)
same,GI50,SF-295,0.0809 µM (active)
same,GI50,SF-539,0.0369 µM (active)
same,GI50,SK-MEL-28,0.0571 µM (active)
same,GI50,SK-MEL-2,> 100 µM (inactive)
same,GI50,SK-MEL-5,0.0697 µM (active)
same,GI50,SK-OV-3,5.04 µM (inactive)
same,GI50,SN12C,0.254 µM (active)
same,GI50,SNB-19,0.0828 µM (active)
same,GI50,SNB-75,> 100 µM (inactive)
same,GI50,SR,0.0247 µM (active)
same,GI50,SW-620,0.0313 µM (active)
same,GI50,T47D,27.5 µM (inactive)
same,GI50,TK-10,> 100 µM (inactive)
same,GI50,U-251,0.071 µM (active)
same,GI50,UACC-257,> 100 µM (inactive)
same,GI50,UACC-62,0.0753 µM (active)
same,GI50,UO-31,0.145 µM (active)
